Results reported in US20060241172A1, “Benzodioxane and benzodioxolane derivatives and uses thereof” (Wyeth, priority 2005, published 2006).

Tests used:
[1] = target: T1, human 5-hydroxytryptamine-2C (h5-HT2C) receptor (Homo sapiens, UniProt P28335); assay: 5-HT2C binding: [125I]DOI displacement in membranes of transfected CHO cells; conditions: read-out: 5-HT2C Binding Ki avg
T1 construct: expressed in transfected cells; host or cells: CHO (Chinese Hamster Ovary) cells; membranes
T1 sequence (P28335 33-458): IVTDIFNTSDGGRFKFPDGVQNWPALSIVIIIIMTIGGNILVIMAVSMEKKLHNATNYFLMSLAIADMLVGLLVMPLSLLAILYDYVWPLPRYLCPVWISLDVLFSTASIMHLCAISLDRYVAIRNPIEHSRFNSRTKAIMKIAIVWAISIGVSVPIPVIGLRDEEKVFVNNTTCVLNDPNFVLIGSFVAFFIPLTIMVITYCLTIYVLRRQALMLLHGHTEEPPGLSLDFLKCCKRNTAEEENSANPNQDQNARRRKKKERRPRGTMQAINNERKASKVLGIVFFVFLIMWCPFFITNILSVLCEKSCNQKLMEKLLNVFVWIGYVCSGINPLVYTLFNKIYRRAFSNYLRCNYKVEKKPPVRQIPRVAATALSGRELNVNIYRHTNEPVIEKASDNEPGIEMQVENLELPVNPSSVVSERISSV

human 5-HT2C receptor = target: T2, human 5-HT2C receptor (Homo sapiens, UniProt P28335); assay: 5-HT2C receptor-stimulated calcium mobilization (FLIPR) in CHO cells; format: cell-based; conditions: for Emax: CHO, read-out: 5-HT2C Function EMax (%); for EC50: read-out: 5-HT2C Function EC50
T2 sequence (P28335 33-458): T1 sequence (P28335 33-458)

[2] = system: male C57BL/6J mice and lean Zucker rats; assay: Obesity Model A: acute food intake after overnight fast, oral dosing; format: in vivo
Method: To evaluate acute in vivo efficacy of various compounds, 7 weeks-old male C57BL/6J mice were obtained from The Jackson Laboratory (Bar Harbor, Me.) and 6 weeks-old lean Zucker rats were purchased from Charles River Laboratories (Wilmington, Mass.). Mice and rats were single housed in a temperature-controlled (25° C.) facility with a 12-h light/dark cycle. Animals were allowed normal chow diet (Rodent chow #5001, PharmaServ, Framingham, Mass.) and water ad libitum. After one week acclimation, animals were randomized to vehicle (saline) or treatment groups. Animals were fasted overnight (16 hrs) and orally dosed with vehicle or compounds. Thirty minutes after compound administration, animals were given a weighed amount of food, and food intake was recorded 30 minutes, 1 h, 2 h, 4 h, 7 h and 24 h after refeeding.

[3] = target: T3, human serotonin 5-HT2C receptor (Homo sapiens, UniProt P28335); assay: Saturation binding of [125I] DOI; conditions: saturation binding with increasing concentrations of [125I] DOI; read-out: dissociation constant, KD
T3 construct: expressed in transfected cells; host or cells: CHO (Chinese Hamster Ovary) cells; membranes
T3 sequence (P28335 33-458): T1 sequence (P28335 33-458)
Method: DOI. The reaction was initiated by the final addition of 100 μL of tissue suspension containing 50 μg of receptor protein. […] Test compounds were added in 20.0 μL. The mixture was incubated at room temperature for 60 min. The incubation was stopped by rapid filtration. The bound ligand-receptor complex was filtered off on a 96 well unifilter with a Packard® Filtermate 196 Harvester. The bound complex caught on the filter disk was dried in a vacuum oven heated to 60° C. and the radioactivity measured by liquid scintillation with 40 μL Microscint-20 scintillant in a Packard TopCount® equipped with six (6) photomultiplier detectors.

[4] = 10 mpk oral, 0.5 hour after refeeding
[5] = 10 mpk oral, 2 hours after refeeding
[6] = 10 mpk oral, 4 hours after refeeding
[7] = 30 mpk oral, 0.5 hour after refeeding
[8] = 30 mpk oral, 2 hours after refeeding
[9] = 30 mpk oral, 4 hours after refeeding
[10] = 50 mpk oral, 0.5 hour after refeeding
[11] = 50 mpk oral, 2 hours after refeeding
[12] = 50 mpk oral, 4 hours after refeeding

Structure (SMILES) | Ki [1] [µM] | Emax (human 5-HT2C receptor) [%] | EC50 (human 5-HT2C receptor) [µM] | % Reduction food intake (vs vehicle) [2, 4] [%] | % Reduction food intake (vs vehicle) [2, 5] [%] | % Reduction food intake (vs vehicle) [2, 6] [%] | % Reduction food intake (vs vehicle) [2, 7] [%] | % Reduction food intake (vs vehicle) [2, 8] [%] | % Reduction food intake (vs vehicle) [2, 9] [%] | % Reduction food intake (vs vehicle) [2, 10] [%] | % Reduction food intake (vs vehicle) [2, 11] [%] | % Reduction food intake (vs vehicle) [2, 12] [%] | other results
NCC1COc2cccc(-c3ccccc3Cl)c2O1 (stereo not shown) [Compound I-1, {[8-(2-Chlorophenyl)-2,3-dihydro-1,4-benzodioxin-2-yl]methyl}amine] | < 0.05 | 60 | < 0.1 | 4 ± 8 | 6 ± 8 | 16 ± 8 | 60 ± 12 | 40 ± 8 | 42 ± 5 | 74 ± 17 | 55 ± 13 | 48 ± 13 | 
COc1cc(CC(C)N)c(OC)cc1I (stereo not shown) [[^125I] DOI] |  |  |  |  |  |  |  |  |  |  |  |  | Kd [3]: 0.0004 µM
NC[C@H]1COc2cccc(-c3c(Cl)cccc3Cl)c2O1 [Compound I-46, {[(2S)-8-(2,6-Dichlorophenyl)-2,3-dihydro-1,4-benzodioxin-2-yl]methyl}amine] | < 0.05 | 50 | < 0.1 | 74 ± 7 | 68 ± 5 | 51 ± 4 | 78 ± 14 | 88 ± 8 | 82 ± 7 | 100 ± 11 | 100 ± 5 | 98 ± 4 | % Reduction food intake (vs vehicle) ([2]; 1 mpk oral, 0.5 hour after refeeding): 0 ± 12%; % Reduction food intake (vs vehicle) ([2]; 1 mpk oral, 2 hours after refeeding): 0 ± 6%; % Reduction food intake (vs vehicle) ([2]; 1 mpk oral, 4 hours after refeeding): 1 ± 8%; % Reduction food intake (vs vehicle) ([2]; 3 mpk oral, 0.5 hour after refeeding): 12 ± 8%; % Reduction food intake (vs vehicle) ([2]; 3 mpk oral, 2 hours after refeeding): 11 ± 5%; % Reduction food intake (vs vehicle) ([2]; 3 mpk oral, 4 hours after refeeding): 14 ± 7%
NCC1Oc2cc(F)cc(-c3ccccc3C(F)(F)F)c2O1 (stereo not shown) [Compound I-82, 1-[4-(2-Trifluoromethyl-phenyl)-6-fluoro-1,3-benzodioxol-2-yl]methanamine] | < 0.05 | 70 | < 0.1 |  |  |  |  |  |  |  |  |  | 
NCC1COc2cccc(-c3ccccc3C(F)(F)F)c2O1 (stereo not shown) [Compound I-4, ({8-[2-(Trifluoromethyl)phenyl]-2,3-dihydro-1,4-benzodioxin-2-yl}methyl)amine] | < 0.05 | 70 | < 0.1 | 9 ± 6 | 5 ± 8 | 2 ± 7 | 29 ± 7 | 14 ± 8 | 0 ± 16 | 56 ± 10 | 27 ± 11 | 8 ± 14 | 
C[C@]1(CN)COc2cccc(-c3ccccc3Cl)c2O1 [Compound I-49, {[(2S)-8-(2-Chlorophenyl)-2-methyl-2,3-dihydro-1,4-benzodioxin-2-yl]methyl}amine] | < 0.05 | 70 | > 0.5 |  |  |  |  |  |  |  |  |  | 
NC[C@H]1COc2cc(Cl)cc(-c3ccccc3C(F)(F)F)c2O1 [Compound I-62, (2S)-[6-Chloro-8-(2-trifluoromethyl-phenyl)-2,3-dihydro-benzo[1,4]dioxin-2-yl]-methylamine] | < 0.05 | 60 | 0.1 to 0.5 |  |  |  |  |  |  |  |  |  | 
CN(C)CC1COc2cccc(-c3ccccc3Cl)c2O1 (stereo not shown) [Compound I-38, {[8-(2-Chlorophenyl)-2,3-dihydro-1,4-benzodioxin-2-yl]methyl}dimethylamine] | < 0.05 | 30 | 0.1 to 0.5 |  |  |  |  |  |  |  |  |  | 
Cc1ccc(C)c(-c2cccc3c2OC(CN)CO3)c1 (stereo not shown) [Compound I-11, {[8-(2,5-Dimethylphenyl)-2,3-dihydro-1,4-benzodioxin-2-yl]methyl}amine] | > 0.2 | 60 | 0.1 to 0.5 |  |  |  |  |  |  |  |  |  | 
